{
  "source": "patent US6376230B1",
  "about": "(dated 2002)",
  "data": [
    {"molecule": "CC1=C(O)CCOC1=O", "values": [
      {"measurement": "melting point", "value": "138 to 144 °C (dec.)"}
    ]},
    {"molecule": "CCCCCCC1=C(O)CCOC1=O", "values": [
      {"measurement": "melting point", "value": "98 to 99 °C (dec.)"}
    ]}
  ]
}
